In brackets after ≈: the same amount, converted by molar mass. Read-outs that look alike come from different tables or passages of the source. Values belong to the compound of their own block, whether it stands above or below them.
How the values were obtained:
[1] = Solubility test; assay type: physicochemical
Experimental: Solubility test: The dissolving solvent was added drop by drop to 1 mmol of testing powder with intermittent agitation with VWR Vertex mixer, until all powder was dissolved. The total mass of the solution was recorded. A glass micro syringe was used to transfer 100 μL of the solution directly to a tared weight glass vial for mass measurement. Specific gravity of the as-obtained solution was calculated, then the total volume of the as-obtained solution was calculated using calculated density and recorded total solution mass. Last, molarity was calculated based on calculated total solution volume (Duan et al., ACS Energy Letters 2017, 2:1156-1161).
The solubilities of as-synthesized FLs in basic solution, 2 M NaOH/KOH, was investigated. […] The energy density is almost double that of a conventional vanadium electrolyte.

[2] = 2M KOH column; literature data provided as a comparison (tested in KOH); cited from earlier work
[3] = Post-cycling analysis of anolyte (NMR, mass spectroscopy); assay type: physicochemical; details: after 6-month operation, 1.36 M anolyte
Experimental: An additional test was conducted for six months (FIG. 18). […] At about cycle 650, catholyte precipitation was noticed, and replaced with fresh catholyte. No material degradation was detected by NMR or mass-spectroscopy (FIGS. 21 and 22).
For the reason that charged anolyte is usually sensitive to 02, flow battery tests of organic based electrolyte reported so far are conducted in inert atmosphere, which is a significant hurdle to their practical applications. We submit another battery test without significant deaerating treatment at reasonable CE and EE (FIGS. 34 and 35). The 1 M battery was assembled without N2 atmosphere, sealed with a stopper and parafilm, and no further deoxygenation was conducted before charging. The battery operated stably at 20 mA/cm^2 for 2 weeks. The observed capacity fluctuation was attributed to temperature changes on a daily basis. […] The first cycle low CE was attributed to charged material consuming existing 02 in the cell system. As expected, the first cycle charging capacity was a little higher than same amount of substance in a battery inside the purge box (without 02 induced discharge influence). However, no irreversible side reactions occurred and long-term cycling occurred analogous to tests conducted in an inert atmosphere purge box. […]

[4] = Cyclic voltammetry in aqueous 1 M NaOH; assay type: physicochemical; details: 1 M NaOH solution
Experimental: Electrochemical tests: CV measurements in aqueous phase were performed using a three-electrode configuration consisting of a glassy carbon working electrode (3 mm diameter), a glassy carbon counter electrode and an Ag/AgCl reference electrode. The electrolytes of 10 mM redox-active materials in 1.0 M NaOH were used. CV data were collected using a CHI760D potentiostat (CH Instruments) at a scan rate of 100 mV s^−1 (Hollas et al., Nature Energy 2018, 3:508-514). CV measurements in nonaqueous phase were performed using a three-electrode configuration consisting of a glassy carbon working electrode (3 mm diameter), a glassy carbon counter electrode and an Ag/AgNO3 (10 mM in Acetonitrile) as reference electrode or Ag wire as pseudo reference electrode (Inzelt et al., Handbook of Reference Electrodes, 2013, Springer). Tests were carried out in an argon-filled Mbraun glove box (Stratham, N.H., USA).
In view of the DFT calculation, it was theorized that functionalization of the FL ring structures with electron withdrawing groups such as —F, -sulfonamide, and —SO3−, among others, would shift the equilibrium constant to increase the concentration of deprotonated FL-OH anion/dianion relative to FL-OH, thereby improving the two-electron redox-reversibility of FLs. […] As expected, the CV curves with two pairs of peaks become clear and sharp with adding stronger electron withdrawing groups. […]

[5] = 2 M KOH solution, aqueous buffer, thermodynamic from solid, 2M KOH, read-out: Solubility
[6] = 2 M NaOH solution, aqueous buffer, thermodynamic from solid, 2M NaOH, read-out: Solubility

solubility (in words) [1]: limited solubility
Compound: O=C1c2cccnc2-c2ncccc21 [Compound 45NFL, 4,5-diazafluoren-9-one]

solubility ([1]; 2M NaOH): 150 mM
Compound: O=C(O)c1cc(F)cc2c1-c1c(cc(F)cc1S(=O)(=O)[O-])C2=O.[K+] [Compound 27F4C5SFL]

solubility [1, 5]: 700 mM | solubility [1, 6]: 1100 mM
Compound: O=C(O)c1ccc2c(c1)C(=O)c1cc(S(=O)(=O)[O-])ccc1-2.[K+] [Compound 2C7SFL]

solubility ([1]; 2M KOH): trace | solubility ([1]; 2M NaOH): trace
Compound: O=C1c2cc(Br)cc(S(=O)(=O)[O-])c2-c2c1cc(Br)cc2S(=O)(=O)[O-].[K+].[K+] [Compound 27Br4SFL]

Compound: O=C(O)c1cc(S(=O)(=O)O)cc2c1-c1ccc(S(=O)(=O)O)cc1C2=O [Compound 27S4CFL, 9-oxo-2,7-sulfo-9H-fluorene-4-carboxylic acid]
solubility ([1]; 2M NaOH): 800 mM (≈ 307 mg/mL)

Compound: O=C1c2cc(O)ccc2-c2ccc(O)cc21 [DHFL, 9-oxo-2,7-dihydroxy-9H-fluorene]
solubility ([1]; pure water with 2 eq. NaOH, aqueous buffer, thermodynamic from solid, with 2 eq. NaOH in pure water, read-out: Solubility): 600 mM (≈ 127 mg/mL)

Compound: O=C(O)c1cccc2c1-c1ccccc1C2=O [Compound 4CFL]
solubility [2]: 650 mM (≈ 146 mg/mL)

Compound: O=C(O)c1ccc2c(c1)C(=O)c1ccccc1-2 [Compound 2CFL]
solubility [2]: 800 mM (≈ 179 mg/mL)

solubility [1, 5]: 1300 mM (≈ 396 mg/mL) | solubility [1, 6]: 1500 mM (≈ 456 mg/mL) | available electron concentration ([1]; two-electron redox reaction, from solubility): ~3 M
Compound: O=C(O)c1cccc2c1-c1ccc(S(=O)(=O)O)cc1C2=O [Compound 4C7SFL, 9-Oxo-7-sulfo-9H-fluorene-4-carboxylic acid]
post-cycling analysis (in words) [3]: small, yet observable new aromatic peaks attributed to de-sulfonation on the fluorenone core structure

solubility ([1]; 2M KOH): trace | solubility ([1]; 2M NaOH): trace
Compound: O=C1c2cc(OCCOCCOCCO)ccc2-c2ccc(OCCOCCOCCO)cc21 [PEG-FL]

solubility ([1]; 2 M KOH solution, aqueous buffer, thermodynamic from solid, read-out: Solubility): < 50 mM | solubility ([1]; 2 M NaOH solution, aqueous buffer, thermodynamic from solid, read-out: Solubility): < 50 mM | solubility ([1]; thermodynamic from solid, disodium salt in pure water, read-out: Solubility): ≤ 240 mM
Compound: O=C1c2cc(S(=O)(=O)[O-])ccc2-c2ccc(S(=O)(=O)[O-])cc21.[K+].[K+] [DSFL, Potassium 9-oxo-9H-fluorene-2,7-disulfonate]

solubility [1, 6]: 1000 mM (≈ 223 mg/mL) | reversible peak potential [4]: ~−0.85 V vs Ag/AgCl
Compound: N#Cc1nc2c(nc1O)-c1ccccc1C2=O [Compound 14N2CN3OHFL, 3-hydroxy-9-oxo-9H-indeno[1,2-b]pyrazine-2-carbonitrile]

solubility ([1]; thermodynamic from solid, with agitation, copious precipitate after sitting overnight, read-out: Solubility (transparent homogeneous solution)): ≤ 1400 mM
Compound: O=C(O)c1cc(F)cc2c1-c1ccc(F)cc1C2=O [Compound 27F4CFL]

solubility ([1]; 2M KOH): 900 mM (≈ 241 mg/mL) | solubility ([1]; 2M NaOH): 40 mM (≈ 10.7 mg/mL)
Compound: O=C(O)c1ccc2c(c1)C(=O)c1cc(C(=O)O)ccc1-2 [DCFL]

Source: patent US11591294B2, “Fluorenone/fluorenol derivatives for aqueous redox flow batteries” (Battelle Memorial Institute, priority 2019, dated 2023)
